Patent publication US12552744B2, “Method for producing monosulfoxide derivative” (KUMIAI CHEMICAL INDUSTRY CO., LTD., priority 2020, dated 2026)

Assay: Solubility of the compound in solvents
Type: physicochemical
Details: at 5° C.

solubility in a mixed solution of 70 wt. % t-butanol/water: about 2 wt. %
SMILES: [O-][S+](CC(F)(F)F)c1cc(OCCCCCSC(F)(F)F)c(F)cc1Cl (stereo not shown) [B-a, 5-trifluoromethylthiopentyl-[4-chloro-2-fluoro-5-(2,2,2-trifluoroethylsulfinyl)phenyl]ether]
